According to patent US9981962B2, “Pyrazole derivatives as NIK inhibitors” (Janssen Pharmaceutica NV, priority 2014, dated 2018):

How the values were obtained:
[1] = target: T1, Recombinant Human NF-kappaB-Inducing Kinase (NIK/MAP3K14) (Homo sapiens, UniProt Q99558); assay: Biological Assay A2: inhibition of auto-phosphorylation of recombinant human NIK/MAP3K14 (AlphaScreen); assay type: biochemical; conditions: 0.2 nM GST-tagged NIK, 25 microM ATP, 1 h at 25° C., averaged values
Protocol: Inhibition of Auto-Phosphorylation of Recombinant Human NF-kappaB-Inducing Kinase (NIK/MAP3K14) Activity (AlphaScreen®)
NIK/MAP3K14 auto-phosphorylation activity was measured using the AlphaScreen® (αscreen) format (Perkin Elmer). All compounds tested were dissolved in dimethyl sulfoxide (DMSO) and further dilutions were made in assay buffer. Final DMSO concentration was 1% (v/v) in assays. Assay buffer was 50 mM Tris pH 7.5 containing 1 mM EGTA (ethylene glycol tetraacetic acid), 1 mM DTT (dithiothreitol), 0.1 mM Na3VO4, 5 mM MgCl2, 0.01% Tween® 20. Assays were carried out in 384 well Alphaplates (Perkin Elmer). Incubations consisted of compound, 25 microM Adenosine-5′-triphosphate (ATP), and 0.2 nM NIK/MAP3K14. Incubations were initiated by addition of GST-tagged NIK/MAP3K14 enzyme, carried out for 1 h at 25° C. and terminated by addition of stop buffer containing anti-phospho-IKK Ser176/180 antibody. Protein A Acceptor and Glutathione-Donor beads were added before reading using an EnVision® Multilabel Plate Reader (Perkin Elmer). Signal obtained in the wells containing blank samples was subtracted from all other wells and IC50's were determined by fitting a sigmoidal curve to % inhibition of control versus Log10 compound concentration.

[2] = system: JJN-3 cells; assay: Biological Assay C: antiproliferative activity on JJN-3 cells (CellTiter-Glo); assay type: cell-based, human; conditions: 72 hr treatment, averaged values
Protocol: (§1) Determination of Antiproliferative Activity on LP-1, L-363 and JJN-3 Cells
(§2) All compounds tested were dissolved in DMSO and further dilutions were made in culture medium. Final DMSO concentration was 0.3% (v/v) in cell proliferation assays. Viability was assessed using CellTiter-Glo cell viability assay kit (Promega). The human LP-1, L-363 and JJN-3 cells (DSMZ) were cultured in RPMI 1640 medium supplemented with 2 mM L-glutamine, and 10% fetal calf serum (PAA). Cells were routinely kept as suspension cells at 37° C. in a humidified 5% CO2 atmosphere. Cells were passaged at a seeding density of 0.2×10^6/ml twice a week. Cells were seeded in black tissue culture treated 96-well plates (Perkin Elmer). Densities used for plating ranged from 2,000 to 6,000 cells per well in a total volume of 75 μl medium. After twenty four hours, drugs and/or solvents were added (25 μl) to a final volume of 100 μl. Following 72 hr of treatment plates were removed from the incubator and allowed to equilibrate to room temperature for approx 10 min. 100 ut CellTiter-Glo reagent was added to each well that was then covered (Perkin Elmer Topseal) and shaken on plate shaker for 10 min. Luminescence was measured on a HTS Topcount (Perkin Elmer). Within an experiment, the results for each treatment were the mean of 2 replicate wells. For initial screening purposes, compounds were tested using a 9 point dilution curve (serial 1:3 dilutions). For each experiment, controls (containing no drug) and a blank incubation (containing cells read at the time of compound addition) were run in parallel. The blank value was subtracted from all control and sample values. For each sample, the mean value for cell growth (in relative light units) was expressed as a percentage of the mean value for cell growth of the control.

[3] = system: L-363 cells; assay: Biological Assay C: antiproliferative activity on L-363 cells (CellTiter-Glo); assay type: cell-based, human; conditions: 72 hr treatment, averaged values
Protocol: as §1, §2

[4] = system: LP-1 cells; assay: Biological Assay C: antiproliferative activity on LP-1 cells (CellTiter-Glo); assay type: cell-based, human; conditions: 72 hr treatment, averaged values
Protocol: as §1, §2

[5] = target: T1, Recombinant Human NF-kappaB-Inducing Kinase (NIK/MAP3K14); assay: Biological Assay A: inhibition of recombinant human NIK/MAP3K14 activity (MSD, MBP substrate); conditions: 10 nM NIK, 25 μM ATP, 1 h at 25° C.; averaged over all measurements on all batches; read-out: Biochemical (MSD IC50)
Protocol: Inhibition of Recombinant Human NF-kappaB-Inducing Kinase (NIK/MAP3K14) Activity Assay buffer was 50 mM Tris pH 7.5 containing 1 mM EGTA (ethylene glycol tetraacetic acid), 1 mM DTT (dithiothreitol), 0.1 mM Na3VO4, 5 mM MgCl2, 0.01% Tween® 20. Assays were carried out in 384 well Mesoscale high binding plates which had been coated with myelin basic protein (MBP) and blocked with bovine serum albumin to prevent non-specific protein binding. All compounds tested were dissolved in dimethyl sulfoxide (DMSO) and further dilutions were made in assay buffer. Final DMSO concentration was 1% (v/v) in assays. Incubations consisted of compound (1% DMSO in control and blank wells), 25 μM Adenosine-5′-triphosphate (ATP), and 10 nM NIK/MAP3K14 substituting enzyme with buffer in the blank wells. Incubations were carried out for 1 h at 25° C. and were followed by washing and sequential incubation with rabbit anti-phospho-MBP and anti-rabbit Ig Sulfotag antibody before reading bound Sulfotag on a Mesoscale Discovery. Signal obtained in the wells containing blank samples was subtracted from all other wells and ICso's were determined by fitting a sigmoidal curve to % inhibition of control versus Log10 compound concentration.

[6] = system: P-IKKα levels in L363 cells; assay: Biological Assay B: effect of compounds on P-IKKα levels in L363 cells; assay type: cell-based; conditions: Homo sapiens, L-363, BAFF stimulated, 2 hr treatment, averaged values, read-out: IKKα Cellular IC50
Protocol: Effect of Compounds on P-IKKα Levels in L363 Cells
All compounds tested were dissolved in DMSO and further dilutions were made in culture medium. Final DMSO concentration was 1% (v/v) in cell assays. The human L363 cells (ATCC) were cultured in RPMI 1640 medium supplemented with GlutaMax and 10% fetal calf serum (PAA). Cells were routinely maintained at densities of 0.2×10^6 cells per ml—1×10^6 cells per ml at 37° C. in a humidified 5% CO2 atmosphere. Cells were passaged twice a week splitting back to obtain the low density. Cells were seeded in 96 well plates (Nunc 167008) at 2×10^6 per ml media in a volume of 75 μl per well plus 25 μl 1 μg/ml recombinant human B-cell activating factor (BAFF/BLyS/TNFSF13B). Seeded cells were incubated at 37° C. in a humidified 5% CO2 atmosphere for 24 hr. Drugs and/or solvents were added (20 μl) to a final volume of 120 μl. Following 2 hr treatment plates were removed from the incubator and cell lysis was achieved by the addition of 30 μl 5× lysis buffer followed by shaking on a plate shaker at 4° C. for 10 min. At the end of this incubation lysed cells were centrifuged at 800×g for 20 min at 4° C. and the lysate was assessed for P-IKKα levels by sandwich immuno-assay carried out in anti-rabbit antibody coated Mesoscale plates. Within an experiment, the results for each treatment were the mean of 2 replicate wells. For initial screening purposes, compounds were tested using an 8 point dilution curve (serial 1:3 dilutions). For each experiment, controls (containing MG132 and BAFF but no test drug) and a blank incubation (containing MG132 and BAFF and 10 μM ADS125117, a test concentration known to give full inhibition) were run in parallel. The blank incubation value was subtracted from all control and sample values. To determine the IC50 a sigmoidal curve was fitted to the plot of % inhibition of control P-IKKα levels versus Log10 compound concentration.

T1 sequence (Q99558 whole entry): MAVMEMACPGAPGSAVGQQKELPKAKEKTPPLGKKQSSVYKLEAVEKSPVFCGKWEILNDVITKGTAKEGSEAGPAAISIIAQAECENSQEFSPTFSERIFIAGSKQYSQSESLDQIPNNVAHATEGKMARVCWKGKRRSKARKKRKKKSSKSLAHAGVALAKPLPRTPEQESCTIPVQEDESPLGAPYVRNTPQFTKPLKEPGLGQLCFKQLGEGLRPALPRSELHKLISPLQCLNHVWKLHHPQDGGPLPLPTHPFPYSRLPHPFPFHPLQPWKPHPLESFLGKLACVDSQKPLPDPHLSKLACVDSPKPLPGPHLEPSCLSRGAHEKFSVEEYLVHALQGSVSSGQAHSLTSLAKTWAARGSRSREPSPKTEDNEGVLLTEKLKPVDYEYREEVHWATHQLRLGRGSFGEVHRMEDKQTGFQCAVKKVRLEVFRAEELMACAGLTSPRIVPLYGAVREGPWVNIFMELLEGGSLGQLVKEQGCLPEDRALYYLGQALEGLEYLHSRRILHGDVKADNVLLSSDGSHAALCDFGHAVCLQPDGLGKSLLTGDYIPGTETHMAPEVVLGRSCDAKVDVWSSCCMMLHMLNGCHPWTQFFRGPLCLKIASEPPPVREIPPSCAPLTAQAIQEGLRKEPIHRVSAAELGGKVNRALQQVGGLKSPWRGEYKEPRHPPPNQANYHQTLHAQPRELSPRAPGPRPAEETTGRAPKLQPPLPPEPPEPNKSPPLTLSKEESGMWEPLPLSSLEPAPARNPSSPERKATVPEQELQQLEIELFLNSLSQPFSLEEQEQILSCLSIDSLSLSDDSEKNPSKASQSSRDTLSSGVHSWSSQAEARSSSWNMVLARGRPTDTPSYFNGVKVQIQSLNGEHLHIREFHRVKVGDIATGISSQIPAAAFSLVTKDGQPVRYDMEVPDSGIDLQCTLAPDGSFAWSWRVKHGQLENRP

SMILES | IC50 [1] [nM] | EC50 ([2]; Homo sapiens, JJN-3, 72 h) [nM] | EC50 ([3]; Homo sapiens, L-363, 72 h) [nM] | EC50 ([4]; Homo sapiens, LP-1, 72 h) [nM] | IC50 [5] [nM] | IC50 [6] [nM] | EC50 [2] [nM] | EC50 [3] [nM] | EC50 [4] [nM]
CCn1cc(-c2cn[nH]c2)c2cc(C#CC(C)(C)O)cc(F)c21 [Compound 26] | 51 | 1570 | 1130 | 2210 |  |  |  |  | 
Cc1nc(C(C)(O)C#Cc2cc3c(-c4c[nH]nc4Cl)cn(C4CCN(C)CC4)c3cc2F)no1 (stereo not drawn) [Compound 35] | 84 | 1360 | 1090 | 4580 |  |  |  |  | 
CC(O)(C#Cc1cc2c(-c3c[nH]nc3Cl)cn(CCCO)c2cc1F)C1CC1 (stereo not drawn) [Compound 21] | 67 | 1090 | 1930 | 3510 |  |  |  |  | 
CCn1cc(-c2cn[nH]c2)c2cc(C#CC(C)(C)O)cc(C#N)c21 [Compound 28] | 554 |  |  |  |  |  |  |  | 
CC(O)(C#Cc1ccc2[nH]cc(-c3cn[nH]c3)c2c1)c1nccs1 (stereo not drawn) [Compound 13] | 7 | 704 | 5520 | 9910 | 9 | 16 |  |  | 
CN1CCC(n2cc(-c3c[nH]nc3Cl)c3cc(C#CC(C)(O)c4nccs4)c(F)cc32)CC1 (stereo not drawn) [Compound 33] | 18 | 624 | 875 | 1610 |  |  |  |  | 
[2H]c1n[nH]c([2H])c1-c1cn(CC)c2cc(F)c(C#CC(C)(C)O)cc12 [Compound 16] | 8510 |  |  | 14200 |  |  |  |  | 
COCCn1cc(-c2cn[nH]c2)c2cc(C#CC(C)(C)O)ccc21 [Compound 7] | 73 | 1410 | 1180 | 2180 | 11 | 175 |  |  | 
CC(C)(O)C#Cc1cc2c(-c3c[nH]nc3Cl)cn(CCCO)c2cc1F [Compound 22] | 11 | 255 | 430 | 1350 |  | 32 |  |  | 
CN1CC(n2cc(-c3c[nH]nc3Cl)c3cc(C#CC(C)(C)O)c(F)cc32)C1 [Compound 29] | 50 | 375 | 176 | 758 |  |  |  |  | 
CN1CCC(n2cc(-c3c[nH]nc3Cl)c3cc(C#CC(C)(C)O)c(F)cc32)CC1 [Compound 20] | 21 | 61 | 43 | 111 |  |  |  |  | 
COCCCn1cc(-c2c[nH]nc2Cl)c2cc(C#CC(C)(O)C3CC3)c(F)cc21 (stereo not drawn) [Compound 17] | 183 | 1520 | 3240 | 1400 |  |  |  |  | 
[2H]C([2H])([2H])C(O)(C#Cc1cc2c(-c3c[nH]nc3Cl)cn(C3CCCN(CC)C3)c2cc1F)C([2H])([2H])[2H] (single isomer, unassigned) [Compound 32] | 76 |  |  |  |  |  | 437 | 310 | 407
[2H]C([2H])([2H])C(O)(C#Cc1cc2c(-c3c[nH]nc3Cl)cn(C3CCCN(CC)C3)c2cc1F)C([2H])([2H])[2H] (single isomer, unassigned) [Compound 31] | 146 |  |  |  |  |  | 606 | 436 | 731
CN1CCC(n2cc(-c3c[nH]nc3Cl)c3cc(C#CC(C)(O)c4ncccn4)c(F)cc32)CC1 (stereo not drawn) [Compound 37] | 162 | 4470 | 2880 | 2510 |  |  |  |  | 
CCn1cc(-c2c[nH]nc2Cl)c2cc(C#CC(C)(C)O)cc(Cl)c21 [Compound 23] | 204 | 2740 | 5400 | 3610 |  |  |  |  | 
CCn1cc(-c2cn[nH]c2)c2cc(C#CC(C)(C)O)cc(C(F)(F)F)c21 [Compound 27] | 552 |  |  |  |  |  |  |  | 
CCn1cc(-c2c[nH]nc2C(F)(F)F)c2cc(C#CC(C)(C)O)ccc21 [Compound 4] | 350 |  |  |  | 581 |  |  |  | 
CCn1cc(-c2c[nH]nc2Cl)c2cc(C#CC(C)(C)O)c(F)c(F)c21 [Compound 25] | 86 | 2230 | 4350 | 3230 |  |  |  |  | 
COCCCn1cc(-c2c[nH]nc2Cl)c2cc(C#CC(C)(C)O)c(F)cc21 [Compound 18] | 33 | 706 | 1180 | 1510 |  |  |  |  | 
[2H]C([2H])([2H])C(O)(C#Cc1cc2c(-c3c[nH]nc3Cl)cn(C3CCN(C4CC4)CC3)c2cc1F)C([2H])([2H])[2H] [Compound 15] | 71 | 608 | 265 | 581 |  |  |  |  | 
[2H]C([2H])([2H])C(O)(C#Cc1cc2c(-c3c[nH]nc3Cl)cn(C3CCCN(CC)C3)c2cc1F)C([2H])([2H])[2H] (stereo not drawn) [Compound 30] | 126 | 379 |  | 397 |  |  |  | 201 | 
CCn1cc(-c2c[nH]nc2Cl)c2cc(C#CC(C)(C)O)c(F)cc21 [Compound 24] | 11 | 734 | 683 | 1580 |  | 127 |  |  | 
Cc1cc(C(C)(O)C#Cc2cc3c(-c4c[nH]nc4Cl)cn(C4CCN(C)CC4)c3cc2F)no1 (stereo not drawn) [Compound 34] | 42 | 1380 | 1220 | 2450 |  |  |  |  | 
CN1CCC(n2cc(-c3c[nH]nc3Cl)c3cc(C#CC(C)(O)C4CC4)c(F)cc32)CC1 (stereo not drawn) [Compound 19] | 190 | 811 | 632 | 749 |  |  |  |  | 
CN1CCC(n2cc(-c3c[nH]nc3Cl)c3cc(C#CC4(O)CCCC4)c(F)cc32)CC1 [Compound 36] |  | 1220 | 845 | 1210 |  |  |  |  | 
